What was measured:
human MT1 receptor = human MT1 receptor (Homo sapiens, UniProt P48039); test: Activation of human MT1 receptor in receptor-expressing HEK293 cells (intracellular Ca2+, FLIPR); assay type: cell-based; conditions: for Emax: HEK293, maximum reaction by ramelteon taken as 100%, solvent only 0%, read-out: MT1 Emax (%); for EC50: HEK293 cells stably expressing human MT1 and Gq/i chimeric G-protein, intracellular Ca2+ by FLIPR
Description: (1) Isolation of Human MT1 and MT2 Receptor and Construction of Expression Vector
A human MT1 receptor gene (GenBank Accession No.: NM_005958.3) and a human MT2 receptor gene (GenBank Accession No.: NM_005959.3) were each introduced into an expression vector pCDNA3.1/Zeo (Invitrogen, Inc.).
(2) Construction of Cells Stably Expressing Human MT1 and Human MT2 Receptor
The introduction was carried out according to the attached instructions, using a Lipofectoamine (registered trademark) 2000 Reagent (Invitrogen, Inc.). Zeocin and hygromycin were used as a resistant drug, and the cell was incubated for 15 days at 0.02 mg/mL and 0.05 mg/mL, respectively, thereby acquiring drug-resistant clones.
(3) Measurement of Intracellular Ca^2+ Concentration by FLIPR (Registered Trademark)
The respective stably expressing cells were dispensed into 96-well poly-D-lysine-coated plates (Falcon Co.) to 40,000 cells/well the day before the experiment, and incubated overnight in a DMEM (Invitrogen, Inc.) medium including 10% FBS at 37° C. and 5% CO2. The medium was replaced with a loading buffer (washing solution (Hank's balanced salt solution (HBSS), 20 mM HEPES-NaOH, 2.5 mM probenecid) including Fluo-4AM (Dojindo Co.) at 4 μM), and incubated for 1 hour at 37° C. and 5% CO2. Thereafter, the cells were washed with a plate washer (ELx405, BIO-TEK Instrument, Inc.) set with the washing solution, and set in an intracellular Ca^2+ concentration measuring systems (FLIPR (registered trademark), Molecular Device Co.). The test compound was dissolved in the washing solution in advance, diluted to a final concentration of −12 to −5 log M, set in a FLIPR (registered trademark) device together with the cells, and added to the cells in the device. At this time, a change in the intracellular Ca^2+ concentrations was measured.
(§1) Ex represents Example No. of the test compound.

[1] = CNS penetration: CSF to plasma unbound concentration ratio in rat; assay type: in vivo; conditions: CSF and plasma (unbound), iv; for Kp uu at 0.25 h: 15 minutes after intravenous administration, CCSF/Cplasma,u, read-out: Kp,uu,CSF,iv15min
Description: Test Example 4 Test for Evaluating CNS Penetration
(1) Measurement of Unbound Fraction (fp) in Rat Plasma
A test compound (100 μg/mL, 50% acetonitrile solution) at 1% (v/v) with respect to the amount of the plasma was added to rat plasma, and dispensed to a sample for a supernatant and a sample for the plasma. The sample for a supernatant was ultracentrifuged at 436,000×g and 37° C. for 140 minutes, and the sample for the plasma was incubated at 37° C. for 140 minutes.
After 140 minutes, the sample for a supernatant after the ultracentrifugation and the sample for the plasma were taken, and mixed with the blank plasma or the blank supernatant, respectively. Acetonitrile including an internal standard material was added to each of the samples, and after the centrifugation at 2150×g and 4° C. for 10 minutes the supernatant was injected into LC-MS/MS.
The unbound fraction in the plasma was calculated by the following equation.
(wherein fp: an unbound fraction in the plasma and D: a dilution rate of the plasma. fu,app=peak area ratio of supernatant sample/peak area ratio of the plasma sample, and peak area ratio=peak area of test compound/peak area of internal standard material).
(2) The CSF to Plasma Unbound Concentration Ratio in Rat
A 50% acetonitrile solution and an acetonitrile including internal standard material was added to the collected plasma or CSF. After centrifugation at 4° C. and 2150×g for 10 minutes, the supernatant was injected into LC-MS/MS, and the total concentration of the test compound in the plasma (Cplasma,t) and the concentration of the test compound in CSF (CCSF) were obtained. The unbound concentration in the plasma (Cplasma,u) of the test compound and the CSF-to plasma unbound concentration ratio (Kp,uu,CSF) of the test compound was calculated by the following equation.
as §1

[2] = tested on: sleep steps of electroencephalogram; test: Measurement test of electroencephalogram in rat (sleep-awake cycle); assay type: in vivo; conditions: for sleep action: rat electroencephalogram, 0.1, 1 and 10 mg/kg intraperitoneally; for change in the occupancy in the respective sleep steps of electroencephalogram: any of the doses 0.1, 1 and 10 mg/kg intraperitoneally
Description: Test Example 5 Measurement Test of Electroencephalogram in Rat
In order to accustom the animals to operations during the experiment, handling was carried out for about 1 minute for one example once a day from the next day of the animal acquisition to the day before the administration.
(2) Method for Preparing Electroencephalogram Electrode-Implanted Specimen
After the completion of a quarantine period, the animals showing no abnormal health condition were subjected to an electroencephalogram electrode chronic implantation surgery with reference to brain atlas of Pellegrino et al. Under anesthesia with pentobarbital sodium (45 mg/kg, i.p.), the rat was calibrated in a brain stereotaxic apparatus. In the frontal cortex, a monopolar silver ball electrode having a diameter of the tip of about 1 mm was placed on a hard film of the brain. Into the hippocampus, a laminated bipolar electrodes made of stainless steel was stuck. The reference electrode was screwed around the olfactory brain. Further, as for the electromyogram measurement, the lead wire was implanted in the both electrodes about 1 cm between the electrodes in the neck portion. The other end was exposed to the head portion subcutaneously. The electrodes and the lead wires were subjected to soldering with connector sockets and fixed to the skull with a dental resin or the like.
(3) Sorting and Grouping of Animals
It was confirmed that twenty five rat examples which had been subjected to an electroencephalogram electrode chronic implantation surgery were recovered from the invasion of the surgery, and stable electroencephalogram were obtained therefrom. The weights of the animals were measured after 6 days from the surgery using an electronic scale balance the day before the first administration, and twenty rats were chosen in the descending order and distributed to perform administration. The administration order for the test materials was determined by a stratified random allocation method using a random number function of a spreadsheet software Excel (Microsoft Corporation).
The rats were accommodated in a measurement cage under rat feeding and water supply on the morning of the day of administration, and accustomed to the measurement environment. After measuring the weight using an electronic scale balance, a lead wire and a connector socket were connected 30 minutes or more before the start of the electroencephalogram measurement, and the rat was accustomed in the measurement state under no anesthesia and no custody. The test compounds (solvent, 0.1 mg/kg, 1 mg/kg, and 10 mg/kg) were intraperitoneally administered to the rats and the electroencephalogram was measured continuously until 6 hours after the administration.
The frequency of brain wave were acquired by applying electrical signals of electroencephalogram and of electromyogram an electroencephalogram system and using an electroencephalogram frequency analysis program of a personal computer from the electroencephalograph system. In addition, the image signals of the electroencephalogram waveform were applied to an EEG video system and recorded on a DVD recorder. The behavior observation was carried out through a video camera at the same time as the electroencephalogram measurement and the images were also recorded with the DVD recorder.
(i) Spontaneous Electroencephalogram
The presence or absence of abnormality in the electroencephalogram waveform in up to 6 hours from immediately after the administration, to each animal, respectively, was observed.
The analysis of a sleep-awake cycle was visually carried out using a sleep stage display-supporting program based on the electroencephalogram waveforms acquired with an electroencephalogram frequency analysis program. […]

Sequence of human MT1 receptor (P48039 whole entry): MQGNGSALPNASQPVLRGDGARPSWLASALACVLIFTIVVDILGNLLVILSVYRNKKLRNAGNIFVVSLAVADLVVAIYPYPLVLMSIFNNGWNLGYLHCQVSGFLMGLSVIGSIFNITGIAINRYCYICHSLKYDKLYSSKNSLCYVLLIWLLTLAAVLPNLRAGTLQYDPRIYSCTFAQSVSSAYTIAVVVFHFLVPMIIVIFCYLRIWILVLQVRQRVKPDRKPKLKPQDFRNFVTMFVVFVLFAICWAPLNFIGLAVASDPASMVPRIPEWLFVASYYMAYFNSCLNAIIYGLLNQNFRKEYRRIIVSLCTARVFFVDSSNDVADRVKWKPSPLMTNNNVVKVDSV

Row | Emax (human MT1 receptor) [%] | EC50 (human MT1 receptor) [nM] | Kp uu at 0.25 h [1] | Kp uu at 10 min ([1]; 10 minutes after the intravenous administration) | Compound | sleep action [2] | change in the occupancy in the respective sleep steps of electroencephalogram ([2]; rat) | occupancy of the sleep step of electroencephalogram ([2]; rat, 0.1 mg/kg intraperitoneally, up to 6 hours) | occupancy of the respective sleep step ([2]; rat, 1 mg/kg intraperitoneally, up to 6 hours)
1 | 86 | 20 | 0.08 | – | CNC(=O)c1[nH]c2cc(F)c(OC)cc2c1CCNC(C)=O [Ex 17] | there was no sleep action | no change in the occupancy in the respective sleep steps of electroencephalogram could not be seen | – | –
2 | 100 | 0.28 | – | > 1 | CCC(=O)NCC[C@@H]1CCc2ccc3c(c21)CCO3 [Ramelteon, reference compound] | there is a sleep action | – | tendency that the occupancy of the sleep step of electroencephalogram from a dose of 0.1 mg/kg increases | significantly increases
3 | 102 | 11 | 0.11 | – | CNC(=O)c1[nH]c2ccc(OC)cc2c1CCNC(=O)C(F)F [Ex 2, 3-{2-[(difluoroacetyl)amino]ethyl}-5-methoxy-N-methyl-1H-indole-2-carboxamide] | there was no sleep action | no change in the occupancy in the respective sleep steps of electroencephalogram could not be seen | – | –

Reference: patent publication US9376449B2, “Indole carboxamide derivative” (Astellas Pharma Inc., priority 2012, dated 2016)
